Experimental findings from patent US20070179161A1, “Pyrazolopyrimidine compounds and their use in medicine” (VERNALIS (CAMBRIDGE) LIMITED., priority 2003, published 2007) are described below.

Experiment [1] deals with T1, PDK1 enzyme (Homo sapiens, UniProt O15530).
T1 sequence (O15530 1-556): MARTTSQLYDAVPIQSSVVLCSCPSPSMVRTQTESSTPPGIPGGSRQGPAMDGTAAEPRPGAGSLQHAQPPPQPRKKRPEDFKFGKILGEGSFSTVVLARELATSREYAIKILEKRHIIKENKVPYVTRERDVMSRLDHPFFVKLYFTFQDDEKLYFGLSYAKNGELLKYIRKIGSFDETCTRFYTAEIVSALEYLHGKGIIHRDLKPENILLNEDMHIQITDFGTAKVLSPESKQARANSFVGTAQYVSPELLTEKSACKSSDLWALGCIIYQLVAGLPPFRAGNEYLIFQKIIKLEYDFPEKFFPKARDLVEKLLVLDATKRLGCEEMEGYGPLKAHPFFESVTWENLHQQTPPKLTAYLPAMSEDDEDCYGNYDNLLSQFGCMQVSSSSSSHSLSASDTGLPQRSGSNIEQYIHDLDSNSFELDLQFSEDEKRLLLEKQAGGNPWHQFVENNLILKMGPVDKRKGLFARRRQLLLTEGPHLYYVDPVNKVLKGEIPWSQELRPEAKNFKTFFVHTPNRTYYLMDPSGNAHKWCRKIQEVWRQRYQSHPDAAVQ
The experiment can be described thus: PDK1 kinase inhibition assay (33P phosphorylation of synthetic peptide, filter plate). It is filed as biochemical. To be noted: 0.01 mM ATP, 60 min at 30° C.; read-out: PDK1 IC50. The method, boiled down:
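PDK1 and inhibitor incubated 60 min at 30° C with 0.01 mM ATP plus 33P-γ-ATP, 0.075 mM peptide, 7.5 mM Mg acetate, 0.1 mg/ml BSA in 0.05 M Tris.HCl pH 7.5. Stopped with phosphoric acid; phosphorylated peptide captured on filter plate and counted by scintillation.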

Experiment [2] in a line: Cell growth inhibition assay: cytotoxicity by sulforhodamine B (SRB) assay. The note with it: 96 h. It is filed as cell-based. As for the experimental part: B. Cell Growth Inhibition Assay:
• 1) Determine cell number by haemocytometer. • 2) Using an 8 channel multipipettor, add 160 μl of the cell suspension ([…] or 2×10^4 cells/ml) to each well of a 96-well microtitre plate. • 3) Incubate overnight at 37° C. in a CO2 incubator. Day 2 • 4) Stock solutions of drugs are prepared, and serial dilutions of each drug are performed in medium to give final concentrations in wells. • 5) Using a multipipettor, 40 μl of drug (at 5× final concentration) is added to quadruplicate wells. • 6) Control wells are at either side of the 96 well plates, where 40 μl of medium is added. • 7) Incubate plates in CO2 incubator for 4 days Day 6 • 8) Tip off medium into sink and immerse plate slowly into 10% ice cold trichloroacetic acid (TCA). Leave for about 30 mins on ice. • 9) Wash plates three times in tap water by immersing the plates into baths of tap water and tipping it off. • 10) Dry in incubator. • 11) Add 100 μl of 0.4% SRB in 1% acetic acid to each well (except the last row right hand)of the 96 well plate, this is the 0% control, ie no drug, no stain. The first row will be the 100% control with no drug, but with stain). Leave for 5 mins. • 12) Wash off unbound SRB stain with four washes of 1% acetic acid. • 13) Dry plates in incubator. • 14) Solubilise SRB using 100 μl of 10 mM Tris base and put plates on plate shaker for 5 mins. • 15) Determine absorbance at 540 nm using a plate reader. Calculate mean absorbance for quadruplicate wells and express as a percentage of value for control, untreated wells.
Plot % absorbance values versus log drug concentration and determine the IC50.

Experiment [3] deals with T2, GST-Chk1 enzyme (Homo sapiens, UniProt O14757).
T2 sequence (O14757 1-476): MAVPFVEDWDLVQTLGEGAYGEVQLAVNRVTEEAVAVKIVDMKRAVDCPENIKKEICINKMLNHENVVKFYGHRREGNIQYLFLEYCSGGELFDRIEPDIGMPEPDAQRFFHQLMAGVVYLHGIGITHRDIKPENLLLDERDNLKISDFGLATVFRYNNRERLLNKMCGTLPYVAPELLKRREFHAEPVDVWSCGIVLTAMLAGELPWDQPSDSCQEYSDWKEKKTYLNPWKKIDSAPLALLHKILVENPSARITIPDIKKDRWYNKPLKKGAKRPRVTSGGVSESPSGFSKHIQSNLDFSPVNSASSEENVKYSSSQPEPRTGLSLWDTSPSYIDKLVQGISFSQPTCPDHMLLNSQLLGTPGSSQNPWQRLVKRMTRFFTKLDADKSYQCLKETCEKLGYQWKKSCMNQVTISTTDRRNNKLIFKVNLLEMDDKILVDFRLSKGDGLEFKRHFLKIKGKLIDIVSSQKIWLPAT
The experiment can be described thus: Chk1 kinase inhibition assay (33P phosphorylation of Chktide, filter plate). In kind it is biochemical. To be noted: 0.01 mM ATP, 11 nM GST-Chk1, 40 minutes at 30° C.; read-out: Chk1 IC50. In outline:
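Inhibitor and enzyme reacted 40 min at 30 °C, then stopped with 50 mM phosphoric acid. Phosphorylated peptide captured on filter plates and quantified by scintillation counting.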

Experiment [4] addresses CDK-2 enzyme, complexed with cyclin A (Homo sapiens, UniProt P24941). The experiment can be described thus: CDK2 enzyme inhibition assay (33P phosphorylation of peptide […], filter plate). To be noted: CDK-2/cyclin A, 0.1 mM ATP, 40 min at 30° C. In kind it is biochemical. In outline:
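Cyclin A–complexed CDK2 (0.4 U/ml) incubated with inhibitor, 0.03 mM peptide, 0.1 mM ATP plus 33P-γ-ATP in HEPES pH 7.5, 7.5 mM Mg acetate, 0.1 mg/ml BSA, 40 min at 30 °C. Stopped with phosphoric acid; phosphorylated peptide captured on filter plates and counted by scintillation.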

Setting [5] is: SRB assay, 4 days with drug, cell line not named, read-out: GI50.

Structures are written as SMILES. Read-outs that look alike come from different tables or passages of the source.

Turning to `N[C@H]1CC[C@H](Nc2cc(Nc3cccc(Cl)c3)n3ncc(Cl)c3n2)CC1` [Example 192], the 50% inhibitory concentration (IC50) came out at 3240 nM in experiment [1], 2140 nM in experiment [3] and 9 nM in experiment [4]. Besides, in experiment [2] (setting [5]), the GI50 came to 200 nM.
For `N[C@H]1CC[C@H](Nc2cc(Nc3ccc(Oc4ccccc4)cc3)n3ncc(Br)c3n2)CC1` [Example 181] the same measures were 109000 nM, 1000 nM, 101 nM and 90 nM.
With `N[C@H]1CC[C@H](Nc2cc(Nc3ccc(Oc4cncc(Cl)c4)cc3)n3ncc(Cl)c3n2)CC1` [Example 191], the GI50 in experiment [2] (setting [5]) came out at 40 nM. In addition, inhibition in experiment [4] was half-maximal at 18 nM (IC50).
As to `CSc1cnn2c(Nc3ccc(S(=O)(=O)N(C)C)cc3)cc(N[C@H]3CC[C@H](N)CC3)nc12` [Example 197], the GI50 in experiment [2] (setting [5]) came to 580 nM. The compound also returned an IC50 in experiment [4] of 55 nM.
For the compound `CN(C)S(=O)(=O)c1ccc(Nc2cc(O[C@H]3CC[C@H](N)CC3)nc3c(Cl)cnn23)cc1` [Example 168], the IC50 came out at 15200 nM in experiment [1], 5000 nM in experiment [3] and 14 nM in experiment [4]. Moreover, in experiment [2] (setting [5]), the GI50 came out at 210 nM.
On to `CC(C)c1cnn2c(Nc3ccc(S(=O)(=O)N(C)C)cc3)cc(N[C@H]3CCNC3)nc12` [Example 194], for which the figures for the IC50 in experiment [1], in experiment [3] and in experiment [4] were 4420 nM, 210 nM and 73 nM, respectively. Also, the GI50 in experiment [2] (setting [5]) came out at 590 nM.
The corresponding values for `CSc1cnn2c(Nc3ccc(Oc4cncc(Cl)c4)cc3)cc(N[C@H]3CC[C@H](N)CC3)nc12` [Example 198] are 4480 nM, 2080 nM, 18 nM and 310 nM.
In the case of `CN(C)S(=O)(=O)c1ccc(Nc2cc(O[C@H]3CCNC3)nc3c(Cl)cnn23)cc1` [Example 196], in experiment [2] (setting [5]), the GI50 turned out to be 1000 nM. Moreover, the concentration for half-maximal inhibition (IC50) in experiment [3] worked out at 4190 nM; in experiment [4] it was 360 nM.
Turning to `CCN[C@H]1CC[C@H](Nc2cc(Nc3ccc(S(=O)(=O)N(C)C)cc3)n3ncc(C(C)C)c3n2)CC1` [Example 147], the IC50 in experiment [1] was 10000 nM; in experiment [3], 4000 nM; in experiment [4], 98 nM. Further, the GI50 in experiment [2] came to 1000 nM.
The corresponding values for `CN(C)S(=O)(=O)c1ccc(Nc2cc(N[C@H]3CC[C@H](N)CC3)nc3c(Br)cnn23)cc1Cl` [Example 180] are 2000 nM, 830 nM, 2 nM and 330 nM.
In the case of `Oc1ccc(-c2cc(Nc3cccc(Cl)c3)n3nccc3n2)cc1` [Example 5], the values for the IC50 in experiment [1], in experiment [3] and in experiment [4] were above 200000 nM, above 200000 nM and 3960 nM, respectively.
As for `CC(C)c1cnn2c(Nc3ccc(S(=O)(=O)N4CCC(O)CC4)cc3)cc(Cl)nc12` [Example 33], the IC50 is above 200000 nM in experiment [1], above 200000 nM in experiment [3] and 271 nM in experiment [4].
On to `CCc1cnn2c(Nc3ccc(C(N)=O)cc3)cc(Cl)nc12` [Example 149], for which the IC50 in experiment [1] was 57000 nM; in experiment [3], 10000 nM; in experiment [4], 140 nM.
The corresponding values for `CC(C)c1cnn2c(Nc3ccc(S(=O)(=O)N(C)C)cc3)cc(N3CCCC(C(=O)N(C)C)C3)nc12` (centres unmarked) [Example 92] are above 200000 nM, above 200000 nM and 10500 nM.

Broadly, the IC50 is the concentration that gives 50% inhibition. The GI50 is the concentration giving 50% growth inhibition.
